From patent publication US20140155410A1 (GlaxoSmithKline LLC, priority 2008, published 2014)

Assays:
GST-tagged FAK = molecular target: T1, GST-tagged FAK (Homo sapiens, UniProt Q05397); assay: Biochemical assay for FAK activity, Assay 1: phosphorylation of peptide substrate with radio-labeled ATP; settings: 5 μM ATP, 30 min pre-incubation; for IC50: read-out: Assay 1 FAK TRF PXC50 (converted)
T1 construct: purchased Invitrogen PV3832
Protocol: GST-tagged (glutathione S-transferase-tagged) FAK was purchased from Invitrogen (PV3832) (www.invitrogen.com). […] To measure inhibitors of FAK, compounds were first prepared as a 10× stock in 10% DMSO. […] A 6-nM GST-FAK solution was prepared in 1.1× reaction buffer containing 44 mM HEPES, pH=7.2, 11 mM MgCl2, 2.2 mM MnCl2, 1.1 mM DTT and 0.011% Tween-20. Then, 20 μL of the 6 nM GST-FAK solution were pre-incubated with the compounds for 30 min at room temperature. […] The reaction was allowed to proceed for 90 min before being quenched with 40 μL of 1% H3PO4. A portion of the reaction mixture (60 μL) was transferred to a phospho-cellulose filter plate (Millipore; www.millipore.com, MAPHNOB50) and incubated for 20 minutes. The plate was filtrated, washed three times using 150 μL of 0.5% H3PO4 and dried at 50° C. for 30 min. After the addition of 60 μL Microscint-20 to the plate, radioactivity was measured using a TopCount (PerkinElmer; www.PerkinElmer.com).

[1] = molecular target: T2, Full length Human FAK (Flag-His-TEV-FAK1) (Homo sapiens, UniProt Q05397); assay: Biochemical assay for FAK activity, Assay 2: LANCE Ultra ULight peptide phosphorylation, 665 nm/615 nm ratio; settings: Flag-His-TEV-FAK1, 10 μM ATP, 30 min pre-incubation; for IC50: read-out: Assay 2 FAK H 31284A TRF PXC50 (converted)
T2 construct: Full length Human FAK was expressed using baculovirus in Sf9 cells; made in house; host or cells: baculovirus in Sf9 cells
Protocol: Flag-His-TEV-FAK1 was prepared in-house. Full length Human FAK was expressed using baculovirus in Sf9 cells with N-terminal FLAG-6×His tags followed by a TEV cleavage site (FLAG-6×His-TEV-huFAK). […] To measure inhibitors of FAK, compounds were first prepared as a 100× stock in 100% DMSO. […] After incubating for 120 minutes at room temperature, the reaction is quenched by adding 5 uL of 20 mM EDTA and 5nMEu-Anti-pTyr antibody in 1× LANCE detection buffer.

T2 sequence (Q05397 whole entry): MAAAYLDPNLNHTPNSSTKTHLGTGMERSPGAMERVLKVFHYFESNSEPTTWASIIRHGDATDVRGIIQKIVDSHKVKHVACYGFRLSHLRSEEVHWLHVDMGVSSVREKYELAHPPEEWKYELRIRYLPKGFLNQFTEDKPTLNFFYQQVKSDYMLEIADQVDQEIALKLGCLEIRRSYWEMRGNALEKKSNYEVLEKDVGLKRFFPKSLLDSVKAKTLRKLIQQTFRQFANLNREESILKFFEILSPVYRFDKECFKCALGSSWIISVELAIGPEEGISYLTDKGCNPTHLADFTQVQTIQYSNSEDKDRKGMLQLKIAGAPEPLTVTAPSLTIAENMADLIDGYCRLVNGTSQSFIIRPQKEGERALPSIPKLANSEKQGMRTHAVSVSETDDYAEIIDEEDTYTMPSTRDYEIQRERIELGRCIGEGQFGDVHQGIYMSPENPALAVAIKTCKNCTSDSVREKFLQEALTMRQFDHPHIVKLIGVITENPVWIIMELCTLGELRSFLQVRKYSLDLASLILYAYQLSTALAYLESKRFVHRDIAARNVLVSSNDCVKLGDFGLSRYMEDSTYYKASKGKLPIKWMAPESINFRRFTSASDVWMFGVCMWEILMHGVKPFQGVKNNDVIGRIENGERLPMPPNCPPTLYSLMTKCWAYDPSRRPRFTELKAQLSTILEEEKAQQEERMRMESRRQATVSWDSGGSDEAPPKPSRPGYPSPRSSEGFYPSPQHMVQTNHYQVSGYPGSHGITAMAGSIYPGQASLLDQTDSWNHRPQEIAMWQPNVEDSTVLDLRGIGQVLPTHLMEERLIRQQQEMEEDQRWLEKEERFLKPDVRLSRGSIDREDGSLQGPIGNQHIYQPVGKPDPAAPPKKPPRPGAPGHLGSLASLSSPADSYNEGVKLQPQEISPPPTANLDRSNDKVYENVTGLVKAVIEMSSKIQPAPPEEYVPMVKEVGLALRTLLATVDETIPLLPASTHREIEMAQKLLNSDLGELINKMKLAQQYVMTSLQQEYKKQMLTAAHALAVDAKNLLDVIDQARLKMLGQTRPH
T1 sequence (Q05397 whole entry): as above

Molecule	IC50 (GST-tagged FAK) [nM]	IC50 [1] [nM]	Assay 1 FAK TRF PXC50 (GST-tagged FAK)	Assay 2 FAK H 31284A TRF PXC50 [1]
CNC(=O)c1cc(Cl)ccc1Nc1cc(Nc2cc(C)nn2C)ncc1Cl [Example 11, 5-Chloro-2-({5-chloro-2-[(1,3-dimethyl-1H-pyrazol-5-yl)amino]-4-pyridinyl}amino)-N-methylbenzamide]	2	6.31		
CCNC(=O)c1ccccc1Nc1cc(Nc2cc(C)nn2C(C)C)ncc1Cl [Example 45, 2-[(5-Chloro-2-{[3-methyl-1-(1-methylethyl)-1H-pyrazol-5-yl]amino}-4-pyridinyl)amino]-N-ethylbenzamide]	10	63.1		
CCn1nc(C(=O)N(C)CCN(C)C)cc1Nc1cc(Nc2ccccc2C(=O)NC)c(Cl)cn1 [Example 25, 5-{[5-Chloro-4-({2-[(methylamino)carbonyl]phenyl}amino)-2-pyridinyl]amino}-N-[2-(dimethylamino)ethyl]-1-ethyl-N-methyl-1H-pyrazole-3-carboxamide]	2.51	31.6		
2-({5-Chloro-2-[(1-ethyl-1H-pyrazol-5-yl)amino]-4-pyridinyl}amino)-4,5-difluoro-N-methylbenzamide [Example 10]			9.1	8
CNC(=O)c1ccccc1Nc1cc(Nc2cc(C3CC3)nn2C)ncc1Cl [Example 6, 2-({5-Chloro-2-[(3-cyclopropyl-1-methyl-1H-pyrazol-5-yl)amino]-4-pyridinyl}amino)-N-methylbenzamide]	1.26	5.01		
CCn1nc(C(=O)NCCN(C)C)cc1Nc1cc(Nc2ccccc2C(=O)NC)c(Cl)cn1 [Example 24, 5-{[5-Chloro-4-({2-[(methylamino)carbonyl]phenyl}amino)-2-pyridinyl]amino}-N-[2-(dimethylamino)ethyl]-1-ethyl-1H-pyrazole-3-carboxamide]	6.31	63.1		
2-({5-Chloro-2-[(1,3-dimethyl-1H-pyrazol-4-yl)amino]-4-pyridinyl}amino)-N-methylbenzamide [Example 27]			8.7	8.1
CNC(=O)c1ccccc1Nc1cc(Nc2ccnn2C)ncc1Cl [Example 2, 2-({5-Chloro-2-[(1-methyl-1H-pyrazol-5-yl)amino]-4-pyridinyl}amino)-N-methylbenzamide]	1.58	10		
CCn1nccc1Nc1cc(Nc2ccccc2C(=O)NC)c(Cl)cn1 [Example 3, 2-({5-Chloro-2-[(1-ethyl-1H-pyrazol-5-yl)amino]-4-pyridinyl}amino)-N-methylbenzamide]	0.631	5.01		
CNC(=O)c1cc(F)c(F)cc1Nc1cc(Nc2cc(C)nn2C)ncc1Cl [Example 9, 2-({5-Chloro-2-[(1,3-dimethyl-1H-pyrazol-5-yl)amino]-4-pyridinyl}amino)-4,5-difluoro-N-methylbenzamide]	1	6.31		
CCn1nccc1Nc1cc(Nc2ccccc2C(=O)NC)c(C(F)(F)F)cn1 [Example 29, 2-{[2-[(1-Ethyl-1H-pyrazol-5-yl)amino]-5-(trifluoromethyl)-4-pyridinyl]amino}-N-methylbenzamide]	0.501	2		
CNC(=O)c1ccccc1Nc1cc(Nc2cc(-c3ccccc3)nn2C)ncc1Cl [Example 1, 2-[5-Chloro-2-(2-methyl-53-ylamino)-pyridin-4-ylamino]-N-methyl-benzamide]	2	15.8		
CCNC(=O)c1ccccc1Nc1cc(Nc2cc(C)nn2C)ncc1Cl [Example 43, 2-({5-Chloro-2-[(1,3-dimethyl-1H-pyrazol-5-yl)amino]-4-pyridinyl}amino)-N-ethylbenzamide]	5.01	25.1		
CCn1nc(C(=O)NOC)cc1Nc1cc(Nc2ccccc2C(=O)NC)c(Cl)cn1 [Example 19, 5-{[5-Chloro-4-({2-[(methylamino)carbonyl]phenyl}amino)-2-pyridinyl]amino}-1-ethyl-N-(methyloxy)-1H-pyrazole-3-carboxamide]	5.01	63.1		
